Patent US20090215759A1, “MODULATORS FOR AMYLOID BETA” (priority 2008, published 2009)

`COc1cc(Nc2nc(-c3ccc(-n4cccn4)cc3)cc(C(F)(F)F)n2)ccc1-n1cnc(C)c1` showed a melting point of 252 to 254 °C.
In the case of `CCOC(=O)c1cnc(Nc2ccc(-n3cnc(C)c3)c(F)c2)nc1-c1ccc(Cl)cc1`, the melting point is reported as 232 to 234 °C.
With `COc1cc(Nc2nc(-c3ccc(Cl)cc3)cc(C(F)(F)F)n2)ccc1-n1cnc(C)c1` the melting point was 202 to 204 °C.
Work on `Cc1cn(-c2ccc(Nc3nc(C)cc(Cc4ccccc4)n3)cc2F)cn1` yielded a melting point of 155 to 158 °C.
Work on `COc1cc(Nc2nc(-c3ccc(-n4ccnc4)cc3)cc(C(F)(F)F)n2)ccc1-n1cnc(C)c1` yielded a melting point of 248 to 250 °C.
`CCOC(=O)c1cnc(Nc2ccc(-n3cnc(C)c3)c(OC)c2)nc1-c1ccc(Cl)cc1` [Example 28, Ethyl 4-(4-chloro-phenyl)-2-[3-methoxy-4-(4-methyl-imidazol-1-yl)-phenylamino]-pyrimidine-5-carboxylate] gave a melting point of 216 to 218 °C.
`COc1cc(Nc2nc(C)cc(Cc3ccccc3)n2)ccc1-c1cnc(C)s1` [Example 209, (4-Benzyl-6-methyl-pyrimidin-2-yl)-[3-methoxy-4-(2-methyl-thiazol-5-yl)-phenyl]-amine] showed a melting point of 138 to 141 °C.
`Cc1cc(Cc2ccccc2)nc(Nc2ccc(-n3cnc(C)n3)c(F)c2)n1` showed a melting point of 183 to 185 °C.
With `COc1cc(Nc2nccc(-c3ccc(Cl)cc3)n2)ccc1-n1cnc(C)c1` the melting point was 202 to 204 °C.
`CCOC(=O)c1cnc(Nc2ccc(-n3cnc(C)c3)c(F)c2)nc1-c1ccc(C(F)(F)F)cc1` gave a melting point of 219 to 221 °C.
For `COc1cc(Nc2nccc(-c3cccnc3)n2)ccc1-n1cnc(C)c1`, the melting point was 204 to 206 °C.
`Cc1cc(Cc2ccccc2)nc(Nc2ccc(-n3ccnc3CO)cc2)n1` showed a melting point of 95 to 98 °C.
For `Cc1cn(-c2ccc(Nc3nc(-c4ccc(Cl)cc4)cc(C(F)(F)F)n3)cc2F)cn1`, the melting point was 248 to 250 °C.
Work on `CCOC(=O)c1cnc(Nc2ccc(-n3cnc(C)c3)c(OC)c2)nc1-c1cccc(C#N)c1` yielded a melting point of 195 to 197 °C.
`Cc1cn(-c2ccc(Nc3nccc(-c4ccc(C(F)(F)F)cc4)n3)cc2F)cn1` showed a melting point of 196 to 197 °C.
With `COc1cc(Nc2nccc(N3CCC(O)CC3)n2)ccc1-n1cnc(C)c1` the melting point was 197 to 200 °C.
For `CCOC(=O)C(c1ccccc1)c1nc(Nc2ccc(-n3cnc(C)c3)c(OC)c2)ncc1-c1ccccc1` (centres unmarked), the melting point was 84 to 86 °C.
